Results from ChEMBL document CHEMBL3868623, “Difluorocyclobutylacetylenes as positive allosteric modulators of mGluR5 with reduced bioactivation potential” (Bioorg Med Chem Lett, 2016).

How the values were obtained:
[1] = in vitro; conditions: human, liver microsomes
[2] = in vitro; conditions: mouse, liver microsomes

| Structure (SMILES) | remaining at 10 min [1] [%] | remaining at 10 min [2] [%] |
| --- | --- | --- |
| O=C1N[C@H](c2cncc(C#CC3CC(F)(F)C3)c2)[C@@H](c2ccc(F)cc2F)O1 | 100 | 84 |
| C[C@]1(O)C[C@@H](C#Cc2cncc([C@H]3NC(=O)O[C@@H]3c3cccc(F)c3)c2)C1 | 95 | 81 |
| O=C1N[C@H](c2cncc(C#CC3CCOC3)c2)[C@@H](c2cccc(F)c2)O1 (stereo not given in full) | 93 | 63 |
| C[C@]1(O)C[C@H](C#Cc2cncc([C@H]3NC(=O)O[C@@H]3c3cccc(F)c3)c2)C1 | 88 | 78 |
| O=C1N[C@H](c2cncc(C#CC3CC3)c2)[C@@H](c2cccc(F)c2)O1 | 81 | 69 |

Results, then the compound that gave them:

| remaining at 10 min [1] [%] | remaining at 10 min [2] [%] | Structure (SMILES) |
| --- | --- | --- |
| 76 | 71 | O=C1N[C@H](c2cncc(C#Cc3ccccc3)c2)[C@@H](c2cccc(F)c2)O1 |
| 81 | 37 | O=C1N[C@H](c2cncc(C#C[C@H]3C[C@H](F)C3)c2)[C@@H](c2cccc(F)c2)O1 |
| 83 | 57 | O=C1N[C@H](c2cncc(C#C[C@H]3C[C@@H](F)C3)c2)[C@@H](c2cccc(F)c2)O1 |
| 100 | 74 | O=C1N[C@H](c2cncc(C#C[C@H]3C[C@H](O)C3)c2)[C@@H](c2cccc(F)c2)O1 |
| 100 | 51 | O=C1N[C@H](c2cncc(C#C[C@H]3C[C@@H](O)C3)c2)[C@@H](c2cccc(F)c2)O1 |
